# Reference: PubChem BioAssay AID1963960 (Molecular Pharmacology Branch, DTP, NCI, 2024)
# Tested on: MDA-MB-468 spheroids with HUVEC/MSC, viability
# Test: Anticancer human tumor MDA-MB-468 cell line growth inhibition [PI3K];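 further: spheroids exposed to agents for seven days before readout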;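 on viability, T/C: 100% = DMSO vehicle control viability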
# Conditions: for IC50: curve of first compound; for viability, T/C: stronger effect = lower value
# Source text: Combinatorial screen of targeted agents with the PI3K inhibitors inavolisib, alpelisib, duvelisib, and copanlisib in multi-cell type tumor spheroids
# A high-throughput screen of multi-cell type tumor spheroids was designed to identify active combinations of targeted small molecules and PI3K pathway inhibitors. Complex spheroids include a stromal component modeled by human endothelial cells (HUVEC) and fibroblasts modeled by human mesenchymal stem cells (MSCs). The concentration ranges selected for each drug and investigational agent were based upon clinically achievable concentrations if the clinical Cmax of the agent was known.
# Compounds. The drugs and investigational agents: inavolisib (NSC800729), alpelisib (NSC765974), duvelisib (NSC772469), copanlisib (NSC816437), ipatasertib (NSC767898), afuresertib (NSC778305), talazoparib (NSC767125), sapanisertib (NSC764658), selumetinib (NSC741078), tovorafenib (DAY101, NSC766906), vemurafenib (NSC761431), ravoxertinib (NSC781343), sotorasib (NSC818433), MRTX1133 (NSC 836407), abemaciclib (NSC 768073), palbociclib (NSC758247), venetoclax (NSC 766270), SY5609 (NSC837396), enzalutamide (NSC755605), and darolutamide (NSC825331), were obtained from the National Cancer Institute (NCI) Developmental Therapeutics Program Chemical Repository. The FDA-approved anticancer drug set is available from the NCI Developmental Therapeutics Program. […] The stock solutions were prepared in dimethyl sulfoxide (DMSO, Sigma-Aldrich, St. Louis, MO, cat. D2650) at 800-fold the tested concentration and stored at -70 degrees C prior to their use. All drugs and investigational agents were tested over a range starting from a high concentration at or near the clinical Cmax and decreasing in half-log increments. If the clinical Cmax for an agent had not been determined, the highest concentration tested was 10 microM.
# Cell Culture. All cells were maintained in an incubator at 37 degrees C and 5% CO2 with 95% humidity. The PDC lines were cultured according to standard operating procedures established by the NCI PDMR (https://pdmr.cancer.gov/sops/default.htm). All PDCs were thawed and cultured in Matrigel-coated flasks prepared with a working solution of 1X Ham's F-12 nutrient mix, without supplementation (Invitrogen, Waltham, MA, cat. 11765054), 100 U/mL penicillin-streptomycin (Invitrogen, cat. 15140122), and 2.5% Matrigel (Corning Inc., Corning, NY, cat. 354248) for the first three passages. The 354836-022-R-J1-PDC, 475296-252-R-J1-PDC, and 997726-040-R-J2-PDC lines were cultured in 6A media, which includes advanced DMEM/F-12 (Thermo Fisher Scientific, cat. 12634028), 10 mM HEPES (Thermo Fisher Scientific, cat. 15630080), 1X GlutaMAX supplement (Thermo Fisher Scientific, cat. 35050061), 0.1 mg/mL primocin (InvivoGen, San Diego, CA, cat. ant-pm-2), 10% defined fetal bovine serum, heat inactivated (HyClone Laboratories Inc., Logan, UT, cat. SH30070.03HI), 50% L-WRN conditioned media (ATCC, cat. CRL-3276), 1.25 mM N-Acetyl-L-cysteine (Sigma-Aldrich, cat. A9165), 10 mM nicotinamide (Sigma-Aldrich, cat. N0636), 1X B-27 supplement (Thermo Fisher Scientific, cat. 17504044), 1X N-2 supplement (Thermo Fisher Scientific, cat. 17502048), and 10 microM Y-27632 dihydrochloride (Tocris Bioscience, Bristol, United Kingdom, cat. 1254). The 624824-186-R-J2-PDC line was cultured in 6C/Colon 1B media, which includes all 6A media components plus 50 ng/mL human EGF recombinant protein (Thermo Fisher Scientific, cat. PHG0311). […]
# [1] = second compound 0.00316 µM, first compound 0.0316 µM
# [2] = second compound 0.00316 µM, first compound 0.1 µM
# [3] = second compound 0.01 µM, first compound 0.0316 µM
# [4] = second compound 0.01 µM, first compound 0.1 µM
# [5] = second compound 0.0316 µM, first compound 0.0316 µM
# [6] = second compound 0.0316 µM, first compound 0.1 µM
# [7] = second compound 0.1 µM, first compound 0.0316 µM
# [8] = second compound 0.1 µM, first compound 0.1 µM
# [9] = second compound 0.316 µM, first compound 0.0316 µM
# [10] = second compound 0.316 µM, first compound 0.1 µM
# [11] = second compound 1 µM, first compound 0.0316 µM
# [12] = second compound 1 µM, first compound 0.1 µM
smiles,measurement,setting,value
CC(C)n1nc(-c2ccc3oc(N)nc3c2)c2c(N)ncnc21 + CC(Nc1ccc2c(c1)OCCn1cc(N3C(=O)OCC3C(F)F)nc1-2)C(N)=O,IC50,second compound 0.00316 µM,48.5 nM
same,IC50,second compound 0.01 µM,41.8 nM
same,IC50,second compound 0.0316 µM,38.5 nM
same,IC50,second compound 0.1 µM,36.7 nM
same,IC50,second compound 0.316 µM,31.2 nM
same,IC50,second compound 1 µM,23 nM
same,"viability, T/C","second compound 0.00316 µM, first compound 0.000316 µM",89.9%
same,"viability, T/C","second compound 0.00316 µM, first compound 0.001 µM",100%
same,"viability, T/C","second compound 0.00316 µM, first compound 0.00316 µM",91.8%
same,"viability, T/C","second compound 0.00316 µM, first compound 0.01 µM",92.6%
same,"viability, T/C",[1],69.5%
same,"viability, T/C",[2],16.7%
same,"viability, T/C","second compound 0.01 µM, first compound 0.000316 µM",95.1%
same,"viability, T/C","second compound 0.01 µM, first compound 0.001 µM",96.8%
same,"viability, T/C","second compound 0.01 µM, first compound 0.00316 µM",88%
same,"viability, T/C","second compound 0.01 µM, first compound 0.01 µM",99%
same,"viability, T/C",[3],59.2%
same,"viability, T/C",[4],21.1%
same,"viability, T/C","second compound 0.0316 µM, first compound 0.000316 µM",100%
same,"viability, T/C","second compound 0.0316 µM, first compound 0.001 µM",94.8%
same,"viability, T/C","second compound 0.0316 µM, first compound 0.00316 µM",77.4%
same,"viability, T/C","second compound 0.0316 µM, first compound 0.01 µM",83%
same,"viability, T/C",[5],58.5%
same,"viability, T/C",[6],15%
same,"viability, T/C","second compound 0.1 µM, first compound 0.000316 µM",103%
same,"viability, T/C","second compound 0.1 µM, first compound 0.001 µM",82.4%
same,"viability, T/C","second compound 0.1 µM, first compound 0.00316 µM",87.8%
same,"viability, T/C","second compound 0.1 µM, first compound 0.01 µM",82.3%
same,"viability, T/C",[7],54.2%
same,"viability, T/C",[8],11.8%
same,"viability, T/C","second compound 0.316 µM, first compound 0.000316 µM",87.2%
same,"viability, T/C","second compound 0.316 µM, first compound 0.001 µM",82.8%
same,"viability, T/C","second compound 0.316 µM, first compound 0.00316 µM",87.6%
same,"viability, T/C","second compound 0.316 µM, first compound 0.01 µM",84.9%
same,"viability, T/C",[9],49.6%
same,"viability, T/C",[10],12.7%
same,"viability, T/C","second compound 1 µM, first compound 0.000316 µM",105%
same,"viability, T/C","second compound 1 µM, first compound 0.001 µM",80.8%
same,"viability, T/C","second compound 1 µM, first compound 0.00316 µM",75.2%
same,"viability, T/C","second compound 1 µM, first compound 0.01 µM",70.8%
same,"viability, T/C",[11],46.6%
same,"viability, T/C",[12],12.3%
CCCS(=O)(=O)Nc1ccc(F)c(C(=O)c2c[nH]c3ncc(-c4ccc(Cl)cc4)cc23)c1F + CC(Nc1ccc2c(c1)OCCn1cc(N3C(=O)OCC3C(F)F)nc1-2)C(N)=O,IC50,second compound 0.00316 µM,5330 nM
same,IC50,second compound 0.01 µM,5160 nM
same,IC50,second compound 0.0316 µM,5070 nM
same,IC50,second compound 0.1 µM,4530 nM
same,IC50,second compound 0.316 µM,3620 nM
same,IC50,second compound 1 µM,3720 nM
same,"viability, T/C",[1],89.1%
same,"viability, T/C",[2],114%
same,"viability, T/C","second compound 0.00316 µM, first compound 0.316 µM",100%
same,"viability, T/C","second compound 0.00316 µM, first compound 1 µM",94.4%
same,"viability, T/C","second compound 0.00316 µM, first compound 3.16 µM",78.9%
same,"viability, T/C","second compound 0.00316 µM, first compound 10 µM",15.6%
same,"viability, T/C",[3],101%
same,"viability, T/C",[4],90%
same,"viability, T/C","second compound 0.01 µM, first compound 0.316 µM",90.6%
same,"viability, T/C","second compound 0.01 µM, first compound 1 µM",104%
same,"viability, T/C","second compound 0.01 µM, first compound 3.16 µM",74.8%
same,"viability, T/C","second compound 0.01 µM, first compound 10 µM",16.4%
same,"viability, T/C",[5],106%
same,"viability, T/C",[6],98.7%
same,"viability, T/C","second compound 0.0316 µM, first compound 0.316 µM",86.8%
same,"viability, T/C","second compound 0.0316 µM, first compound 1 µM",103%
same,"viability, T/C","second compound 0.0316 µM, first compound 3.16 µM",74.8%
same,"viability, T/C","second compound 0.0316 µM, first compound 10 µM",14.2%
same,"viability, T/C",[7],95.4%
same,"viability, T/C",[8],90.6%
same,"viability, T/C","second compound 0.1 µM, first compound 0.316 µM",85.6%
same,"viability, T/C","second compound 0.1 µM, first compound 1 µM",94.5%
same,"viability, T/C","second compound 0.1 µM, first compound 3.16 µM",66.2%
same,"viability, T/C","second compound 0.1 µM, first compound 10 µM",14.5%
same,"viability, T/C",[9],95.6%
same,"viability, T/C",[10],89.1%
same,"viability, T/C","second compound 0.316 µM, first compound 0.316 µM",79.2%
same,"viability, T/C","second compound 0.316 µM, first compound 1 µM",94.1%
same,"viability, T/C","second compound 0.316 µM, first compound 3.16 µM",55%
same,"viability, T/C","second compound 0.316 µM, first compound 10 µM",12.1%
same,"viability, T/C",[11],85.3%
same,"viability, T/C",[12],88.3%
same,"viability, T/C","second compound 1 µM, first compound 0.316 µM",78.7%
same,"viability, T/C","second compound 1 µM, first compound 1 µM",67.2%
same,"viability, T/C","second compound 1 µM, first compound 3.16 µM",61.4%
same,"viability, T/C","second compound 1 µM, first compound 10 µM",11%
